Test system: wild type newborns
Test: Injection of oxytocin in wild type neonates: lethality and survival
Format: in vivo, mouse
Protocol: Three to 5 hours after delivery, wild type pups or pups issued from a cross between an heterozygote (+/−) male with wild type females were temporally removed (10 min) from their mother, weighted and given a single s.c. (in the ventral region at the level of floating ribs) injection (20 μl) of isotonic saline or 2 μg oxytocin (Phoenix Pharmaceuticals. Inc., Catalog No. 051-01) dissolved in isotonic saline (20 μl). […] Following the same protocol, we injected vasopressin (Phoenix Pharmaceuticals. Inc., Catalog No. 065-07) at different doses. At P2, pups were scarified to be genotyped.
The results obtained with the injection of SSR 126768A OTA let us think that we might restore a normal feeding behaviour in Magel2 KO newborns with an OT injection just after birth. Early neonatal manipulation of OT was reported in the literature without alterations of the postnatal development (Cushing, B. S., et Al., 2003; Yamamoto, Y., et al., 2004; Saito, O., et Al., 2007). Initially, 28 wild type newborns were injected with an isotonic saline (20 μl) and 4 of them died at P1. Another cohort of 28 wild type newborns, […] on hypothalamic nuclei one hour after the injection (Cushing, B. S., et Al., 2003; Yamamoto, Y., et al., 2004). […] At P2, we observed that 95% (35/37) of wild type and 93% (37/40) of Magel2 mutant newborns survived with milk previously detected in their stomach at P1. […]

CC[C@H](C)[C@@H]1NC(=O)[C@H](Cc2ccc(O)cc2)NC(=O)[C@@H](N)CSSC[C@@H](C(=O)N2CCC[C@H]2C(=O)N[C@@H](CC(C)C)C(=O)NCC(N)=O)NC(=O)[C@H](CC(N)=O)NC(=O)[C@H](CCC(N)=O)NC1=O [oxytocin]
level of lethality (s.c. oxytocin 2 μg in 20 μl NaCl 0.9%, wild type pups n=28, saline 4/28): 3/28
newborns survived at P2 with milk in stomach at P1 (wild type, 2 μg oxytocin s.c. 3 to 5 hours after birth): 95%

From patent US9125862B2, “Methods for the treatment of Prader-Willi-like syndrome or non-organic failure to thrive (NOFITT) feeding disorder using an agonist of the oxytocin receptor” (Institut National de la Sante et de la Rechereche Medicale …, priority 2010, dated 2015)
